For the data set, the system named is rodent carcinogenicity bioassays, tumor incidence. Description: CCRIS carcinogenicity studies. A digest of the protocol:
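NCI-built, expert-reviewed records of carcinogenicity and related test outcomes (mutagenicity, tumor promotion/inhibition) compiled from published and report sources, historical span 1985-2011, not updated.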

Activity calls are given as the source filed them. How the calls were made is not given here.

As for `CC(O)COC(C)(C)C` (configuration not stated), the carcinogen call runs as follows: (Species: MOUSE, Strain/Sex: B6C3F1/FEMALE, Route: INHALATION, Dose: 0, 75, 300, 1200 PPM 6 HR/D, 5 D/WK FOR 104 WKS, Dose: 0, 75, 300, 1200 PPM 6 HR/D, 5 D/WK FOR 104 WKS, Tumor Site: Type of Lesion: LIVER: HEPATOCELLULAR ADENOMA, CARCINOMA OR HEPATOBLASTOMA) “active; positive”; (Species: MOUSE, Strain/Sex: B6C3F1/MALE, Route: INHALATION, Dose: 0, 75, 300, 1200 PPM 6 HR/D, 5 D/WK FOR 104 WKS, Dose: 0, 75, 300, 1200 PPM 6 HR/D, 5 D/WK FOR 104 WKS, Tumor Site: Type of Lesion: LIVER: HEPATOCELLULAR ADENOMA, CARCINOMA OR HEPATOBLASTOMA) “active; positive”; (Species: RAT, Strain/Sex: F344/N/FEMALE, Route: INHALATION, Dose: 0, 75, 300, 1200 PPM 6 HR/D, 5 D/WK FOR 104 WKS, Dose: 0, 75, 300, 1200 PPM 6 HR/D, 5 D/WK FOR 104 WKS) “inactive; negative”; (Species: RAT, Strain/Sex: F344/N/MALE, Route: INHALATION, Dose: 0, 75, 300, 1200 PPM 6 HR/D, 5 D/WK FOR 104 WKS, Dose: 0, 75, 300, 1200 PPM 6 HR/D, 5 D/WK FOR 104 WKS, Tumor Site: Type of Lesion: NO STATISTICALLY SIGNIFICANT INCREASE IN TUMORS BUT KIDNEY TUBULE TUMORS INCREASED SLIGHTLY) “equivocal”.

Regarding `[O]=[Co]`, the carcinogen call was “inactive; negative” (Species: RAT, Strain/Sex: SPRAGUE-DAWLEY/FEMALE, Route: INTRATRACHEAL, Dose: 0, 2, 10 MG/KG EVERY 14 D FOR TOTAL DOSES OF 0, 78, 390 MG/KG (STUDY DURATION: 2 YR), Dose: 0, 2, 10 MG/KG EVERY 14 D FOR TOTAL DOSES OF 0, 78, 390 MG/KG (STUDY DURATION: 2 YR)); “active; positive” (Species: RAT, Strain/Sex: SPRAGUE-DAWLEY/MALE,FEMALE, Route: INTRAPERITONEAL, Dose: 0, 200 MG/KG EVERY 2 MO FOR TOTAL DOSES OF 0, 600 MG/KG, Dose: 0, 200 MG/KG EVERY 2 MO FOR TOTAL DOSES OF 0, 600 MG/KG, Tumor Site: Type of Lesion: PERITONEUM: TUMORS); “active; positive” (Species: RAT, Strain/Sex: SPRAGUE-DAWLEY/MALE, Route: INTRATRACHEAL, Dose: 0, 2, 10 MG/KG EVERY 14 D FOR TOTAL DOSES OF 0, 78, 390 MG/KG (STUDY DURATION: 2 YR), Dose: 0, 2, 10 MG/KG EVERY 14 D FOR TOTAL DOSES OF 0, 78, 390 MG/KG (STUDY DURATION: 2 YR), Tumor Site: Type of Lesion: LUNG: TUMOR); “active; positive” (Species: RAT, Strain/Sex: SPRAGUE-DAWLEY/MALE, Route: SUBCUTANEOUS, Dose: 0, 2 MG/KG 5/WK FOR TOTAL DOSES OF 0, 1000 MG/KG (STUDY DURATION: 2 YR), Dose: 0, 2 MG/KG 5/WK FOR TOTAL DOSES OF 0, 1000 MG/KG (STUDY DURATION: 2 YR), Tumor Site: Type of Lesion: SUBCUTANEOUS TISSUE: TUMORS); “active; positive” (Species: RAT, Strain/Sex: SPRAGUE-DAWLEY/MALE, Route: SUBCUTANEOUS, Dose: 0, 10 MG/KG 1/WK FOR TOTAL DOSES OF 0, 1000 MG/KG (STUDY DURATION: 2 YR), Dose: 0, 10 MG/KG 1/WK FOR TOTAL DOSES OF 0, 1000 MG/KG (STUDY DURATION: 2 YR), Tumor Site: Type of Lesion: SUBCUTANEOUS TISSUE: TUMORS).

Regarding `O=C[C@H](O)[C@@H](O)[C@H](O)CO`, for the setting “Species: RAT, Strain/Sex: FISCHER 344/MALE, FEMALE (50/GROUP), Route: DIET, Dose: 0, 2.5, 5% IN DIET FOR 104 WKS (STUDY DURATION: 104 WKS), Dose: 0, 2.5, 5% IN DIET FOR 104 WKS (STUDY DURATION: 104 WKS)”, the carcinogen call was “inactive; negative”.

On to `ClC[C@H]1O[C@@H]1Cl`, for which the carcinogen call runs as follows: (Species: MOUSE, Strain/Sex: ICR/FEMALE, Route: DERMAL, Dose: 10 MG IN 0.1 ML ACETONE 3/WK FOR LIFE, Tumor Site: Type of Lesion: INTEGUMENTARY SYSTEM (SKIN): PAPILLOMA, SQUAMOUS CELL CARCINOMA) “active; positive”; (Species: MOUSE, Strain/Sex: ICR/FEMALE, Route: SUBCUTANEOUS, Dose: 500 UG IN 0.05 ML TRICAPRYLIN 1/WK FOR LIFE, Tumor Site: Type of Lesion: INJECTION SITE: FIBROSARCOMA) “active; positive”.

`CC1(C)S[C@@H]2[C@H](NC(=O)[C@H](N)c3ccccc3)C(=O)N2[C@H]1C(=O)O`: the carcinogen call is “inactive; negative” (Species: MOUSE, Strain/Sex: B6C3F1/FEMALE, Route: GAVAGE, Dose: 0, 1500, 3000 MG/KG IN CORN OIL 5 D/WK FOR 103-104 WK (STUDY DURATION: 106 WK), Dose: 0, 1500, 3000 MG/KG IN CORN OIL 5 D/WK FOR 103-104 WK (STUDY DURATION: 106 WK)); “inactive; negative” (Species: MOUSE, Strain/Sex: B6C3F1/FEMALE, Route: GAVAGE, Dose: 0, 1500, 3000 MG/KG IN CORN OIL 5 D/WK FOR 103 WK, Dose: 0, 1500, 3000 MG/KG IN CORN OIL 5 D/WK FOR 103 WK); “inactive; negative” (Species: MOUSE, Strain/Sex: B6C3F1/MALE, Route: GAVAGE, Dose: 0, 1500, 3000 MG/KG IN CORN OIL 5 D/WK FOR 103-104 WK (STUDY DURATION: 106 WK), Dose: 0, 1500, 3000 MG/KG IN CORN OIL 5 D/WK FOR 103-104 WK (STUDY DURATION: 106 WK)); “inactive; negative” (Species: MOUSE, Strain/Sex: B6C3F1/MALE, Route: GAVAGE, Dose: 0, 1500, 3000 MG/KG IN CORN OIL 5 D/WK FOR 103 WK, Dose: 0, 1500, 3000 MG/KG IN CORN OIL 5 D/WK FOR 103 WK); “inactive; negative” (Species: RAT, Strain/Sex: F344/FEMALE, Route: GAVAGE, Dose: 0, 750, 1500 MG/KG IN CORN OIL 5 D/WK FOR 103-104 WK (STUDY DURATION: 106 WK), Dose: 0, 750, 1500 MG/KG IN CORN OIL 5 D/WK FOR 103-104 WK (STUDY DURATION: 106 WK)); “inactive; negative” (Species: RAT, Strain/Sex: F344/FEMALE, Route: GAVAGE, Dose: 0, 750, 1500 MG/KG IN CORN OIL 5 D/WK FOR 103 WK, Dose: 0, 750, 1500 MG/KG IN CORN OIL 5 D/WK FOR 103 WK). Besides, for the setting “Species: RAT, Strain/Sex: F344/MALE, Route: GAVAGE, Dose: 0, 750, 1500 MG/KG IN CORN OIL 5 D/WK FOR 103 WK (STUDY DURATION: 105 WK), Dose: 0, 750, 1500 MG/KG IN CORN OIL 5 D/WK FOR 103 WK (STUDY DURATION: 105 WK), Tumor Site: Type of Lesion: ADRENAL MEDULLA: PHEOCHROMOCYTOMAS, HEMATOPOIETIC SYSTEM: MONONUCLEAR CELL LEUKEMIA”, the carcinogen call is reported as “equivocal”.

In the case of `Cc1cc(-c2ccc(N/N=C3\C=Cc4c(S(=O)(=O)O)cc(S(=O)(=O)O)c(N)c4C3=O)c(C)c2)ccc1N/N=C1\C=Cc2c(S(=O)(=O)O)cc(S(=O)(=O)O)c(N)c2C1=O`, the carcinogen call (Species: RAT, Route: INTRAPERITONEAL, Tumor Site: Type of Lesion: LIVER) was “active; positive”.

For the compound `CC(C)N(C(=O)SC/C(Cl)=C/Cl)C(C)C`, the carcinogen call reads like this: (Species: MOUSE, Strain/Sex: B6AKF1/MALE, Route: GAVAGE/ORAL, Dose: 215 MG/KG IN GELATIN FROM D 7-28 OF LIFE THEN 560 PPM IN DIET, Tumor Site: Type of Lesion: LIVER: HEPATOMA) “active; positive”; (Species: MOUSE, Strain/Sex: B6C3F1/MALE,FEMALE, Route: GAVAGE/ORAL, Dose: 215 MG/KG IN GELATIN FROM D 7-28 OF LIFE THEN 560 PPM IN DIET, Tumor Site: Type of Lesion: LIVER: HEPATOMA) “active; positive”; (Species: RAT, Strain/Sex: STRAIN-CD/MALE,FEMALE, Route: ORAL, Dose: 150, 300 PPM IN DIET FOR 78 WK) “inactive; negative”.

Turning to `CC(C)N=C=NC(C)C`, the carcinogen call runs as follows: (Species: Mouse, Strain/Sex: B6C3F1/Female (50/Group), Route: Dermal, Dose: 0, 10, 20, 40 mg/kg in anhydrous ethanol 5 d/wk for 2 yr, Dose: 0, 10, 20, 40 mg/kg in anhydrous ethanol 5 d/wk for 2 yr) “inactive; negative”; (Species: Mouse, Strain/Sex: B6C3F1/Male (50/Group), Route: Dermal, Dose: 0, 10, 20, 40 mg/kg in anhydrous ethanol 5 d/wk for 2 yr, Dose: 0, 10, 20, 40 mg/kg in anhydrous ethanol 5 d/wk for 2 yr) “inactive; negative”; (Species: Rat, Strain/Sex: F344/N/Female (50/Group), Route: Dermal, Dose: 0, 10, 20, 40 mg/kg in anhydrous ethanol 5 d/wk for 2 yr, Dose: 0, 10, 20, 40 mg/kg in anhydrous ethanol 5 d/wk for 2 yr) “inactive; negative”; (Species: Rat, Strain/Sex: F344/N/Male (50/Group), Route: Dermal, Dose: 0, 10, 20, 40 mg/kg in anhydrous ethanol 5 d/wk for 2 yr, Dose: 0, 10, 20, 40 mg/kg in anhydrous ethanol 5 d/wk for 2 yr) “inactive; negative”.

These data come from PubChem BioAssay AID1259411 (Chemical Carcinogenesis Research Information System (CCRIS), 2018).
